Series [1] is described as follows: Kinetic solubility. The class given is physicochemical. As to conditions: buffered aqueous solution at pH=7.4, 10 μL of 10 mM DMSO solution in 1 mL, stirred 4 hours, supernatant by liquid chromatography, read-out: Kin. Solub. Here is the method: To a buffered aqueous solution at pH=7.4 (1 mL), a 10 mM DMSO solution of the test compound (10 μL) was added and the mixture stirred for 4 hours. After centrifugation, the compound concentration in the supernatant was determined by liquid chromatography by fitting in a calibration curve of the compound.

Series [2] deals with T1, human sigma 1 receptor (Homo sapiens, UniProt Q99720).
T1 construct: expressed in transfected cells; host or cells: HEK-293
T1 sequence (Q99720 whole entry): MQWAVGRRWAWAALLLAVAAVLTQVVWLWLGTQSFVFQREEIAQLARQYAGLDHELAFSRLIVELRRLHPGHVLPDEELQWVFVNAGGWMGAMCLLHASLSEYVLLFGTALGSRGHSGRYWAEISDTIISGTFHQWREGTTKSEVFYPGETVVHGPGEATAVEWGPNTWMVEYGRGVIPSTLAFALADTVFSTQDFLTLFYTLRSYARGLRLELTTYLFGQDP
The experiment in a line: Human sigma 1 receptor radioligand assay ([3H](+)-pentazocine, transfected HEK-293 membranes). Particulars: 5 nM [3H](+)-pentazocine, transfected HEK-293 membranes, 37° C., 120 minutes; read-out: Ki. The class given is binding. Here is the method: Human Sigma 1 Receptor Radioligand Assay
The assay was carried out with 7 μg of membrane suspension, 5 nM of [^3H](+)-pentazocine in either absence or presence of either buffer or 10 μM Haloperidol for total and non-specific binding, respectively. Binding buffer contained Tris-HCl 50 mM at pH 8. Plates were incubated at 37° C. for 120 minutes. After the incubation period, the reaction mix was then transferred to MultiScreen HTS, FC plates (Millipore), filtered and plates were washed 3 times with ice-cold 10 mM Tris-HCL (pH7.4). Filters were dried and counted at approximately 40% efficiency in a MicroBeta scintillation counter (Perkin-Elmer) using EcoScint liquid scintillation cocktail.

Where [3] appears, read: aqueous buffer, kinetic from dmso stock.
Where [4] appears, read: buffered aqueous solution, pH 7.4, aqueous buffer, kinetic from dmso stock.

≈ marks a conversion by molar mass, not a printed value. Read-outs that look alike come from different tables or passages of the source. A value given as a limit tells only on which side of the number the result lay.

Consider `Cl.Fc1ccccc1-c1nnn2c1CO[C@@H]1CN(Cc3ccncc3)C[C@H]12` (racemic) [Example 2, (5aRS,8aRS)-3-(2-fluorophenyl)-7-(pyridin-4-ylmethyl)-4,5a,6,7,8,8a-hexahydropyrrolo[3,4-b][1,2,3]triazolo[1,5-d][1,4]oxazine hydrochloride], for which the solubility at 4 h in series [1] (setting [3]) is more than 10 µM. For the same compound, the Ki in series [2] was found to be 315 nM.

Take `Cl.Fc1ccccc1-c1nnn2c1CO[C@@H]1CN(Cc3ccccn3)C[C@H]12` (racemic) [Example 3, (5aRS,8aRS)-3-(2-fluorophenyl)-7-(pyridin-2-ylmethyl)-4,5a,6,7,8,8a-hexahydropyrrolo[3,4-b][1,2,3]triazolo[1,5-d][1,4]oxazine hydrochloride]: in series [1] (setting [3]), the solubility at 4 h is more than 10 µM.

In the case of `Cl.Fc1ccc(-c2nnn3c2CO[C@@H]2CN(Cc4ccoc4)C[C@H]23)cc1` (racemic) [Example 21, (5aRS,8aRS)-3-(4-fluorophenyl)-7-(furan-3-ylmethyl)-4,5a,6,7,8,8a-hexahydropyrrolo[3,4-b][1,2,3]triazolo[1,5-d][1,4]oxazine hydrochloride], the solubility at 4 h in series [1] (setting [3]) was more than 10 µM. Besides, in series [2], the Ki stood at 16.6 nM.

Regarding `Cl.Fc1ccc(CN2C[C@@H]3[C@@H](C2)OCc2c(-c4ccncc4)nnn23)cc1` (racemic) [Example 26, (5aRS,8aRS)-7-(4-fluorobenzyl)-3-(pyridin-4-yl)-4,5a,6,7,8,8a-hexahydropyrrolo[3,4-b][1,2,3]triazolo[1,5-d][1,4]oxazine hydrochloride], the solubility at 4 h in series [1] (setting [3]) is more than 10 µM. Moreover, the Ki in series [2] worked out at 133 nM.

As to `Cl.Fc1ccccc1-c1nnn2c1CO[C@@H]1CN(Cc3cccnc3)C[C@H]12` [Example 1, (5aR,8aR)-3-(2-fluorophenyl)-7-(pyridin-3-ylmethyl)-4,5a,6,7,8,8a-hexahydropyrrolo[3,4-b][1,2,3]triazolo[1,5-d][1,4]oxazine hydrochloride], the solubility at 4 h in series [1] (setting [3]) is more than 20 µM.

Take `Cl.Fc1ccc(-c2nnn3c2CO[C@H]2CN(C4CCOCC4)C[C@@H]23)cc1` [Example 4, (5aS,8aS)-3-(4-fluorophenyl)-7-(tetrahydro-2H-pyran-4-yl)-4,5a,6,7,8,8a-hexahydropyrrolo[3,4-b][1,2,3]triazolo[1,5-d][1,4]oxazine hydrochloride]: the solubility at 4 h in series [1] (setting [3]) was more than 10 µM. For the same compound, the Ki in series [2] amounted to 23 nM.

`Cl.Fc1ccc(-c2nnn3c2CO[C@@H]2CN(C4CCOCC4)C[C@H]23)cc1` [Example 5, (5aR,8aR)-3-(4-fluorophenyl)-7-(tetrahydro-2H-pyran-4-yl)-4,5a,6,7,8,8a-hexahydropyrrolo[3,4-b][1,2,3]triazolo[1,5-d][1,4]oxazine hydrochloride]: the solubility at 4 h in series [1] (setting [4]) is more than 10 µM.

`Cl.Fc1ccccc1-c1nnn2c1CO[C@H]1CN(C3CCOCC3)C[C@@H]12` [Example 6, (5aS,8aS)-3-(2-fluorophenyl)-7-(tetrahydro-2H-pyran-4-yl)-4,5a,6,7,8,8a-hexahydropyrrolo[3,4-b][1,2,3]triazolo[1,5-d][1,4]oxazine hydrochloride]: the solubility at 4 h in series [1] (setting [4]) was more than 10 µM.

As for `Cl.Fc1ccccc1-c1nnn2c1CO[C@@H]1CN(C3CCOCC3)C[C@H]12` [Example 7, (5aR,8aR)-3-(2-fluorophenyl)-7-(tetrahydro-2H-pyran-4-yl)-4,5a,6,7,8,8a-hexahydropyrrolo[3,4-b][1,2,3]triazolo[1,5-d][1,4]oxazine hydrochloride], the solubility at 4 h in series [1] (setting [3]) is more than 10 µM.

Take `COc1ccc(-c2nnn3c2CO[C@H]2CN(C4CCOCC4)C[C@@H]23)cn1.Cl` [Example 8, (5aS,8aS)-3-(6-methoxypyridin-3-yl)-7-(tetrahydro-2H-pyran-4-yl)-4,5a,6,7,8,8a-hexahydropyrrolo[3,4-b][1,2,3]triazolo[1,5-d][1,4]oxazine hydrochloride]: the solubility at 4 h in series [1] (setting [3]) was more than 10 µM. For the same compound, the Ki in series [2] turned out to be 227 nM.

Regarding `CCOc1ccc(CN2C[C@@H]3OCc4c(-c5ccccc5F)nnn4[C@H]3C2)cn1.Cl` [Example 20, (5aS,8aS)-7-((6-ethoxypyridin-3-yl)methyl)-3-(2-fluorophenyl)-4,5a,6,7,8,8a-hexahydropyrrolo[3,4-b][1,2,3]triazolo[1,5-d][1,4]oxazine hydrochloride], the solubility at 4 h in series [1] (setting [4]) is more than 10 µM.

In the case of `Cl.Fc1ccc(CN2C[C@@H]3[C@@H](C2)OCc2c(-c4ccccn4)nnn23)cc1` [Example 24, (5aR,8aR)-7-(4-fluorobenzyl)-3-(pyridin-2-yl)-4,5a,6,7,8,8a-hexahydropyrrolo[3,4-b][1,2,3]triazolo[1,5-d][1,4]oxazine hydrochloride], the solubility at 4 h in series [1] (setting [4]) was more than 10 µM.

As for `Cl.Fc1ccc(CN2C[C@@H]3OCc4c(-c5ccccn5)nnn4[C@H]3C2)cc1` [Example 25, (5aS,8aS)-7-(4-fluorobenzyl)-3-(pyridin-2-yl)-4,5a,6,7,8,8a-hexahydropyrrolo[3,4-b][1,2,3]triazolo[1,5-d][1,4]oxazine hydrochloride], the solubility at 4 h in series [1] (setting [3]) was more than 10 µM.

Consider `Cl.Fc1ccc(-c2nnn3c2CO[C@@H]2CN(C4CCOCC4)C[C@H]23)c(F)c1` [Example 28, (5aR,8aR)-3-(2,4-difluorophenyl)-7-(tetrahydro-2H-pyran-4-yl)-4,5a,6,7,8,8a-hexahydropyrrolo[3,4-b][1,2,3]triazolo[1,5-d][1,4]oxazine hydrochloride], for which the solubility at 4 h in series [1] (setting [4]) is more than 10 µM.

In the case of `Cl.Fc1ccc(-c2nnn3c2CO[C@@H]2CN(CCC4CCOCC4)C[C@H]23)c(F)c1` [Example 40, (5aR,8aR)-3-(2,4-difluorophenyl)-7-(2-(tetrahydro-2H-pyran-4-yl)ethyl)-4,5a,6,7,8,8a-hexahydropyrrolo[3,4-b][1,2,3]triazolo[1,5-d][1,4]oxazine hydrochloride], the solubility at 4 h in series [1] (setting [4]) was more than 10 µM.

With `Cl.Fc1ccc(-c2nnn3c2CO[C@H]2CN(CCC4CCOCC4)C[C@@H]23)c(F)c1` [Example 41, (5aS,8aS)-3-(2,4-difluorophenyl)-7-(2-(tetrahydro-2H-pyran-4-yl)ethyl)-4,5a,6,7,8,8a-hexahydropyrrolo[3,4-b][1,2,3]triazolo[1,5-d][1,4]oxazine hydrochloride], in series [1] (setting [4]), the solubility at 4 h was more than 10 µM.

As to `Cl.Clc1ccc(-c2nnn3c2CO[C@@H]2CN(CC4CCOCC4)C[C@H]23)c(Cl)c1` [Example 44, (5aR,8aR)-3-(2,4-dichlorophenyl)-7-((tetrahydro-2H-pyran-4-yl)methyl)-4,5a,6,7,8,8a-hexahydropyrrolo[3,4-b][1,2,3]triazolo[1,5-d][1,4]oxazine hydrochloride], the solubility at 4 h in series [1] (setting [3]) is more than 10 µM.

In the case of `Cl.Clc1ccc(-c2nnn3c2CO[C@H]2CN(CC4CCOCC4)C[C@@H]23)c(Cl)c1` [Example 45, (5aS,8aS)-3-(2,4-dichlorophenyl)-7-((tetrahydro-2H-pyran-4-yl)methyl)-4,5a,6,7,8,8a-hexahydropyrrolo[3,4-b][1,2,3]triazolo[1,5-d][1,4]oxazine hydrochloride], the solubility at 4 h in series [1] (setting [4]) was more than 10 µM.

Regarding `Cl.Fc1ccc(CN2C[C@@H]3[C@@H](C2)OCc2c(C4CCOCC4)nnn23)cc1` [Example 64, (5aR,8aR)-7-(4-fluorobenzyl)-3-(tetrahydro-2H-pyran-4-yl)-4,5a,6,7,8,8a-hexahydropyrrolo[3,4-b][1,2,3]triazolo[1,5-d][1,4]oxazine hydrochloride], in series [1] (setting [3]), the solubility at 4 h was more than 10 µM.

Consider `Cl.Fc1ccc(CN2C[C@@H]3OCc4c(C5CCOCC5)nnn4[C@H]3C2)cc1` [Example 65, (5aS,8aS)-7-(4-fluorobenzyl)-3-(tetrahydro-2H-pyran-4-yl)-4,5a,6,7,8,8a-hexahydropyrrolo[3,4-b][1,2,3]triazolo[1,5-d][1,4]oxazine hydrochloride], for which, in series [1] (setting [4]), the solubility at 4 h is more than 10 µM.

For `Fc1ccc(CN2C[C@@H]3[C@@H](C2)OCc2c(-c4cccc(F)c4)nnn23)cc1` [drawing 113, reference compound], the solubility at 4 h in series [1] (setting [4]) stood at 3.4 µM (≈ 1.25 µg/mL).

Take `Fc1ccc(CN2C[C@@H]3[C@@H](C2)OCc2c(-c4cccc(F)c4)nnn23)cc1` [drawing 121, reference compound]: in series [1], the solubility at 4 h is given as 3.9 µM (≈ 1.44 µg/mL).

In the case of `Fc1ccc(-c2nnn3c2CO[C@@H]2CN(Cc4ccccc4)C[C@H]23)cc1` [reference compound], the solubility at 4 h in series [1] (setting [4]) is 1.82 µM (≈ 0.638 µg/mL).

Turning to `Fc1ccc(CN2C[C@@H]3[C@@H](C2)OCc2c(-c4ccc(F)cc4F)nnn23)cc1` [reference compound], the solubility at 4 h in series [1] (setting [4]) was 2.13 µM (≈ 0.823 µg/mL).

For `Clc1ccc(-c2nnn3c2COC2CN(Cc4ccccc4)C[C@H]23)cc1` (some centres unmarked) [reference compound], the solubility at 4 h in series [1] (setting [4]) turned out to be 0.93 µM (≈ 0.341 µg/mL).

Turning to `Clc1ccc(-c2nnn3c2CO[C@@H]2CN(Cc4ccccc4)C[C@H]23)c(Cl)c1` [reference compound], the solubility at 4 h in series [1] (setting [4]) came out at 7.8 µM (≈ 3.13 µg/mL).

For the compound `FC(F)(F)c1ccc(-c2nnn3c2COC2CN(Cc4ccccc4)C[C@H]23)cc1` (some centres unmarked) [reference compound], the solubility at 4 h in series [1] (setting [4]) was less than 0.4 µM.

`COc1ccc(-c2nnn3c2CO[C@H]2CN(Cc4ccccc4)C[C@@H]23)cc1` [reference compound]: in series [1] (setting [4]), the solubility at 4 h was determined as 2.1 µM (≈ 0.761 µg/mL).

As to `Fc1ccc(CN2C[C@@H]3OCc4c(-c5ccccc5F)nnn4[C@H]3C2)cc1` [reference compound], the solubility at 4 h in series [1] (setting [4]) came to 3.08 µM (≈ 1.13 µg/mL).

Turning to `Clc1cc(Cl)nc(N2CC3OCc4c(-c5ccccc5)nnn4[C@@H]3C2)n1` (some centres unmarked) [reference compound], the solubility at 4 h in series [1] (setting [4]) is less than 1 µM.

Source of the values: patent US9512142B2, “Tricyclic triazolic compounds” (LABORATORIOS DEL DR. ESTEVE S.A., priority 2013, dated 2016).
